Source: article PMC7281280, “Is the Way to Fight Cancer Paved with Gold? Metal-Based Carbene Complexes with Multiple and Fascinating Biological Features” (Pharmaceuticals, 2020)

How the values were obtained:
[1] = tested on: tubulin; assay: In vitro tubulin-polymerization assay (turbidity at 350 nm); format: biochemical; conditions: 10 µM
Description: Tubulin-polymerization inihibition was measured using in vitro Tubulin-Polymerization Assay Kit purchased fromEMD Millipore Corporation. Polymerization reactions occur in 70 µL final volumes, of which 60 µL is the 60 µM tubulin in 1 × PB-GTP and 10 µL is the test substance dissolved in 1 × PB-GTP. […] These reactives were combined in 96-well plate on ice. After the plate was transferred into the spectrophotometer pre-warmed at 37 °C and the turbidity variation was measured every 30 s at 350 nm for 90 min. The plate was shaked for 10 s before each measurement. Turbidity (absorbance) readings were used to calculate the extent of polymerization [% inhibition = (1−A350 sample/A350 control) × 100].
Figure 4 Tubulin-polymerization assay. […] Two positive control molecules, Paclitaxel and Vinblastine, were used as tubulin-stabilizing and tubulin-destabilizing agents, respectively. DMSO was used as a negative control. Assembly of tubulin into microtubules was determined by measuring the turbidity at 350 nm for 3600 s at 37 °C. All the compounds were used at a concentration of 10 μM.

[2] = tested on: HeLa cells; assay: Immunofluorescence of microtubules, HeLa; format: cell-based, human; conditions: at IC50 value, 24 h
Description: Cells were grown on glass coverslips in full media, then serum-deprived for 24 h and exposed to compounds for 24 h (concentration equal to its IC50 value). Then, the cells after PBS-washed, were fixed with cold methanol (15 min/−20 °C) and incubated with primary antibody, diluted in blocking solution (4 °C/overnight), as previously described. The mouse anti-β-Actin (69879) and the rabbit anti-β tubulin (9104) were purchased from Santa Cruz Biotechnology and used at 1:100 dilution. Coverslips were then washed 3 times with PBS, then fixed cells were incubated with the secondary antibody Alexa Fluor® 568 conjugate goat-anti-mouse and Alexa Fluor® 488 conjugate goat-anti-rabbit (1:500, Thermo Fisher Scientific, Waltham, MA, USA). Nuclei were stained using DAPI (Sigma–Aldrich, Mila, Italy) for 10 min at a concentration of 0.2 μg/mL then washed 3 times with PBS. Fluorescence was detected using a fluorescence microscope (Leica DM 6000). LAS-X software was used to acquire and process all images.
Figure 6 Immunofluorescence studies. HeLa cells were treated with AuL4, Vinblastine, Paclitaxel (used at their IC50 values) or with a vehicle (CTRL) for 24 h. After treatment, the cells were methanol fixed, incubated with primary and secondary antibodies, stained with DAPI and observed and imaged under the inverted fluorescence microscope at 20× magnification (see Materials and methods). […] Panels A: DAPI, excitation/emission wavelength 350 nm/460 nm; panels B: β-tubulin (Alexa Fluor® 488) excitation/emission wavelength 490 nm/515 nm; panels C show a merge. Representative fields are shown.

[3] = molecular target: T1, human topoisomerase I (hTopo I) (Homo sapiens, UniProt P11387); assay: Human topoisomerase I relaxation assay; format: biochemical; conditions: 1 μM
T1 construct: purchased TopoGEN, Port Orange, FL, USA
T1 sequence (P11387 1-765): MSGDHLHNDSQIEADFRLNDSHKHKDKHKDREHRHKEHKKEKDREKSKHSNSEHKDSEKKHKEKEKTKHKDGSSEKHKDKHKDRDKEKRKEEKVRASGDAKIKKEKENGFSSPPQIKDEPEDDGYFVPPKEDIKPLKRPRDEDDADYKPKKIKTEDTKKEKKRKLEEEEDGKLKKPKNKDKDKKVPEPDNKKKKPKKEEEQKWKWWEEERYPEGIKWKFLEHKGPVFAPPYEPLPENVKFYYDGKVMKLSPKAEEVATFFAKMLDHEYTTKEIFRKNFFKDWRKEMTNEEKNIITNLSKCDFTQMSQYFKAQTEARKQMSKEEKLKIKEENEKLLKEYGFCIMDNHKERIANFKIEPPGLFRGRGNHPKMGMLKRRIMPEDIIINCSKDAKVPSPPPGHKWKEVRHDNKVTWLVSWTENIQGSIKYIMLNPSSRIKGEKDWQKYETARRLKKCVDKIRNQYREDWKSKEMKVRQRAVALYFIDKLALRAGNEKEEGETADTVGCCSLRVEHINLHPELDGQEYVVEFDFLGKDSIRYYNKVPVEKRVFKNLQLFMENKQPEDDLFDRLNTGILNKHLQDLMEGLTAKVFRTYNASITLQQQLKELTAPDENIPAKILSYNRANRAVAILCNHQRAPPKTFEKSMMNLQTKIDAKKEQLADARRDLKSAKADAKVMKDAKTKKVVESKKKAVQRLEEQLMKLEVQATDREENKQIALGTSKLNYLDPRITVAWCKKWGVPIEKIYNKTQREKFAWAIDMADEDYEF
Description: Topoisomerases are essential enzymes involved in DNA metabolism, because of their ability to cause temporary DNA strand breakage, and tightly involved, if overexpressed, in cancer development.
hTopo I relaxation assays have been performed in a final volume of […], as reported by Iacopetta et al., incubating […] of supercoiled plasmid pHOT1 in Tris-EDTA (TE) buffer (TopoGEN, Port Orange, FL, USA) with tested compounds and recombinant hTopo I (2 units) (TopoGEN, Port Orange, FL, USA) for 1h at 37 °C. The obtained solution has been loaded in a 1% agarose gel containing 1× Tris-acetate-EDTA (TAE) buffer without ethidium bromide (EB). Agarose gel has been stained using 1× TAE buffer with EB ([…]) for 30 min and after washed with distilled water for 15 min. At the end, it has been visualized by using a ultraviolet (UV) transilluminator. The experiment was performed in triplicate.
Figure 7 hTopoI assay.

[4] = molecular target: T2, human topoisomerase II (hTopo II) (Homo sapiens, UniProt P11388); assay: Human topoisomerase II decatenation assay; format: biochemical; conditions: 1 μM
T2 construct: purchased topoGEN, Port Orange, FL, USA
Description: Decatenated and linear kDNA (Figure 8, lanes 1 and 2) are used as markers.
hTopo II decatenation assays were performed in a final volume of […], as reported by Iacopetta et al., using […] of kinetoplast DNA (kDNA) (topoGEN, Port Orange, FL, USA), tested compounds and 3 units of hTopo II (topoGEN, Port Orange, FL, USA). The reaction products were loaded in an agarose gel with EB. At the end, the gel was washed with distilled water and analyzed using a UV transilluminator. The experiment was repeated three times.
Lane 1 and 2, decatenated and linear kDNA, respectively.

T2 sequence (P11388 whole entry): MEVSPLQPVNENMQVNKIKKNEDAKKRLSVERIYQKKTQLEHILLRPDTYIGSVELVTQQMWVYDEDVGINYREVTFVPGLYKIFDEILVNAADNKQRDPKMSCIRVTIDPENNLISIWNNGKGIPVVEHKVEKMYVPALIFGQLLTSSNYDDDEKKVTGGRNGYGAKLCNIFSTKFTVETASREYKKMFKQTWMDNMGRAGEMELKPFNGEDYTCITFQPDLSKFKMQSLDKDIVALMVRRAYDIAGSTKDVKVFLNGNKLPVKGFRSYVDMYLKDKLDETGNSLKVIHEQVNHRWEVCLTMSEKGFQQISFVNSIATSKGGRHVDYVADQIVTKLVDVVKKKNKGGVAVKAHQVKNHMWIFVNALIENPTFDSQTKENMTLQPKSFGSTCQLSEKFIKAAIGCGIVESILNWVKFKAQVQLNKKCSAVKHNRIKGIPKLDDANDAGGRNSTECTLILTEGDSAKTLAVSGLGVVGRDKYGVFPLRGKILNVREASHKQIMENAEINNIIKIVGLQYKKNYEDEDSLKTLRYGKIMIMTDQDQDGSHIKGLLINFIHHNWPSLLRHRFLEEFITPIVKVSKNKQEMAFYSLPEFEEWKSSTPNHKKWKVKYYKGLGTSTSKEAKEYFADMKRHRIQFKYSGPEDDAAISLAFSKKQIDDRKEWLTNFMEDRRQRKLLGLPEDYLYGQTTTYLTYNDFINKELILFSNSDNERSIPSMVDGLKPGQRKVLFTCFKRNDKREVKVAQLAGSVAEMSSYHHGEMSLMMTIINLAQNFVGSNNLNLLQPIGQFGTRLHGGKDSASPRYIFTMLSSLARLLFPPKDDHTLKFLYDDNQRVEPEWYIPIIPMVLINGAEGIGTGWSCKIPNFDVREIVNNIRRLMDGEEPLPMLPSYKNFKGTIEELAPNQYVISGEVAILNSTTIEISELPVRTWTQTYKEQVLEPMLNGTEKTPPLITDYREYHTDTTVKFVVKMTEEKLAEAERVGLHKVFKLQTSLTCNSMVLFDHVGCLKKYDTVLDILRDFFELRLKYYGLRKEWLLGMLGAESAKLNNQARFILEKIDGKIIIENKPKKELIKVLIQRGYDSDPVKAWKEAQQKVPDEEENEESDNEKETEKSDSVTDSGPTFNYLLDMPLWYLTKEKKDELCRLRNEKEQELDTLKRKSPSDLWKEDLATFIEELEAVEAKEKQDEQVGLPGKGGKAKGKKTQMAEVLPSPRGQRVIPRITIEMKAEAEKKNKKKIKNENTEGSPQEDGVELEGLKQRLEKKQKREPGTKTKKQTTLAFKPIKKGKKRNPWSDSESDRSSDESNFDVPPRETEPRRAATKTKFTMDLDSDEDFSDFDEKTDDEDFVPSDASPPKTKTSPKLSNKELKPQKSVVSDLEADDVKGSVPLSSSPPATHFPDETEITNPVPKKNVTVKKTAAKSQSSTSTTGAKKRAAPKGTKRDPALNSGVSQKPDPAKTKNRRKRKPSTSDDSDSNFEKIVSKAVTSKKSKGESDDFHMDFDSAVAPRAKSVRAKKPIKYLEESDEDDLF

C[n+]1c(Cl)c(Cl)n(C2CCCC2O)[c]1[Au-][c]1n(C2CCCC2O)c(Cl)c(Cl)[n+]1C.[Cl][Au-][Cl] (racemic) [AuL4, bis-[4,5-dichloro-(N-methyl-N’(cyclopentane-2ol)-imidazole-2-ylidine)gold(I)]^+[dichloro-gold]^−]
effect on tubulin-polymerization reaction [1]: seems not to hamper the tubulin-polymerization reaction
final optical density value at 350 nm (OD350) ([1]; 37 °C, vehicle (DMSO) about 0.43): slightly higher than that of DMSO reaction
effect on microtubule network, HeLa [2]: paclitaxel-like behavior
inhibition of hTopo I supercoil relaxing activity [3]: totally inhibition
inhibition of hTopo II decatenation activity [4]: total blockade of hTopoII activity
